Laboratory results: patent publication US20090275667A1, “USE OF ALLICIN AS PRESERVATIVE, AS DISINFECTANT, AS ANTIMICROBIAL OR AS BIOCIDAL AGENT” (Stone Island Holdings Ltd, priority 2003, published 2009)

Experiments:
[1] = test system: Paenibacillus larvae subsp. larvae; assay: Inhibition of bacterial growth in broth by Allicin (Study 2); type: cell-based; parameters: key: +: Growth present; +^a: weak growth seen, occurred later than lower concentrations; conditions: 34° C.
Description: (§1) Allicin liquid (nominal concentration=1000 ppm. ai) was obtained from Allicin International Ltd and kept refrigerated.
(§2) The bacteria tested were Paenibacillus larvae subsp. larvae, Melissococcus plutonium, Brevibacillus laterosporus and Paenibacillus alvei. All isolates were freshly isolated from diseased material sent to the NBU diagnostic laboratory.
(§3) P. larvae subsp. larvae, B. laterosporus and P. alvei were grown on brain heart infusion plus thiamine (BHIT) agar and broth (SOP NBU/014) under aerobic conditions and M. plutonius was grown on SYPG agar and broth (SOP NBU/015) under anaerobic conditions. All experiments were carried out at 34° C. The concentrations of Allicin liquid investigated were 500, 250, 100, 50, 25 and 10 ppm. Broth was made up at twice the usual concentration, so that when the Allicin-containing component was added, the medium was at the correct strength for bacterial growth. Allicin solution was diluted in sterile deionised water to give the desired concentration when added to autoclaved broth. […] Further controls were included, which were the media plus an appropriate volume of Allicin, but not inoculated with bacteria. This would indicate if there were any bacteria present in the test item that may influence the results seen. Both aerobic and anaerobic controls were included.
(§4) Bacteria were isolated from diseased samples and subcultured on agar plates until pure, when they were inoculated into broth cultures. Cultures of M. plutonius were isolated anaerobically, then plated out and incubated both aerobically and anaerobically, to confirm that the isolate investigated was this bacterium. A similar microbe, Enterococcus faecalis, can sometimes be isolated from EFB-infected samples and is morphologically difficult to distinguish from M. plutonius. However, the former bacterium grows very well aerobically, whereas M. plutonius is unable to replicate. Thus, if an isolate is able to grow aerobically, it is not M. plutonius. This control mechanism was used throughout the experimental procedures to ensure that the correct organism was tested.
(§5) Each bacterium was freshly grown in a test tube containing 5 ml broth. A loopful (5 μl) of this bacterial suspension was removed from the culture and inoculated into each test tube according to SOP NBU/131. The same inoculum source for each strain was used for all Allicin dilutions, and all experiments were done in triplicate.
(§6) Where growth occurred in the presence of Allicin, one replicate from each concentration for each bacterium was plated out on the appropriate agar to identify the bacteria that had grown in the broth, to confirm the results (SOP NBU/131). Once growth was evident on this confirmation plate, the culture was assessed with respect to the colony morphology and Gram stained (according to SOP NBU/111) as a further confirmatory test. This is a suitable method as each bacterium tested has distinctive morphology both macro- and microscopically.

[2] = test system: Brevibacillus laterosporus; assay: as above; type: cell-based; parameters: key: +: Growth present; +^a: weak growth seen, occurred later than lower concentrations; conditions: 34° C.
Description: as §1, §2, §3, §4, §5, §6

[3] = test system: Paenibacillus alvei; assay: as above; type: cell-based; parameters: key: +: Growth present; +^a: weak growth seen, occurred later than lower concentrations; conditions: 34° C.
Description: as §1, §2, §3, §4, §5, §6

[4] = test system: Melissococcus plutonius; assay: as above; type: cell-based; parameters: key: +: Growth present; +^a: weak growth seen, occurred later than lower concentrations; conditions: 34° C.
Description: as §1, §2, §3, §4, §5, §6

[5] = test system: Bordetella; assay: Zones of Inhibition against common chicken bacteria; type: cell-based
[6] = test system: E. coli, Listeria, E. faecalis and other bacteria associated with animal diseases; conditions: laboratory tests of earlier application WO03/024437; cited from earlier work
[7] = test system: GISA strain isolated from the UK mortality; assay: Standard agar diffusion test against a GISA strain; type: cell-based, Staphylococcus aureus
Excerpt: Allicin in a liquid form has been tested against the GISA strain isolated from the UK mortality. In a standard agar diffusion test the strain produced a zone of 37 mm at 500 ppm (FIG. 2) and 30 mm at 300 ppm.

[8] = test system: Ent. Hirae; assay: Agar inhibition test; type: cell-based, Enterococcus hirae; conditions: equivalent to 0.0225% w/v
[9] = test system: P. l. larvae; assay: Minimum bactericidal concentration by plating out MIC cultures; type: cell-based, Paenibacillus larvae subsp. larvae; conditions: range of 1000 ppm to 25 ppm
Description: Positive controls contained the antibiotic Tylosin (Tylan® 50, Elanco Animal Health Inc., IN) and negative controls contained no antibiotics. Bacterial (P. l. larvae, P. l. pulviphaciens) or fungal (A. apis, A. aggregata) spores (100 μl of approximately 10^8-10^9 spores/ml) were added to a 2.5 ml of bacterial or fungal liquid medium containing serial dilutions of allicin. Cultures were incubated in a shaker at 35° C. and 215 rpm. The optical densities of cultures (OD 600) were recorded 24 h and 48 h post inoculation, depending on the growth rate of the microbial species. […] Minimum bactericidal concentration values (NBC) were determined for allicin by plating out 100 μl of bacterial cultures derived from the MIC assay. Plates were incubated 24 h and 48 h at 33° C. and 6% CO2 to observe microbial growth.

[10] = test system: P. larvae subsp. larvae; assay: Investigation into bacteriostatic or bactericidal effects (Study 2); type: cell-based, Paenibacillus larvae subsp. larvae; parameters: key to Growth in broth after exposure to test Item at concentration indicated: *: Growth present in one replicate only
Description: Where there was no growth in a replicate, at the end of one week the culture was plated out for single colonies on the appropriate agar. This was to determine whether the test item had bactericidal activity, where all the bacterial cells are killed, or bacteriostatic action, where the cells are unable to replicate in the presence of the substance, but will grow when it is removed. A further test, where 0.5 ml of the broth was transferred into 4.5 ml fresh broth (giving a 1:10 dilution) was also undertaken. There would still be some Allicin in the broth, but it should be present at a low enough concentration for growth not to be affected. Where growth occurred in the absence of Allicin, the broth was examined microscopically and plated out for single colonies to confirm the identity of the bacterium.

## C=CCS[S+]([O-])CC=C (stereo not drawn) [allicin, Allicin]
[1]; 10 ppm
  Growth present at test item concentration: +
[1]; 25 ppm
  Growth present at test item concentration: +^a
[2]; 10 ppm
  Growth present at test item concentration: +
[2]; 25 ppm
  Growth present at test item concentration: +
[2]; 50 ppm
  Growth present at test item concentration: +
[2]; 100 ppm
  Growth present at test item concentration: +^a
[3]; 10 ppm
  Growth present at test item concentration: +
[3]; 25 ppm
  Growth present at test item concentration: +
[3]; 50 ppm
  Growth present at test item concentration: +
[3]; 100 ppm
  Growth present at test item concentration: +^a
[4]; 10 ppm
  Growth present at test item concentration: +
[4]; 25 ppm
  Growth present at test item concentration: +
[4]; 50 ppm
  Growth present at test item concentration: +
[4]; 100 ppm
  Growth present at test item concentration: +^a
[5]; 166 ppm (1:6 dilution)
  zone of inhibition at 166 ppm: 18 mm
[5]; 1000 ppm
  zone of inhibition at 1000 ppm: 36 mm
[6]
  concentration at which allicin can kill the bacteria: up to 500 ppm
[7]; Staphylococcus aureus, 300 ppm, allicin in a liquid form
  zone of inhibition at 300 ppm: 30 mm
[7]; Staphylococcus aureus, 500 ppm, allicin in a liquid form
  zone of inhibition at 500 ppm: 37 mm
[7]; recommended doses for topical use
  susceptibility of the GISA strain: fully susceptible
[8]
  allicin concentration at which inhibition was demonstrated on agar plates: ≤ 0.225 g/L
[9]
  bacteriostatic or bactericidal activity: only bacteriostatic (no bactericidal) activity
[10]; 50 ppm, 10% inoculum transferred to fresh broth
  Growth in broth after exposure to test Item at concentration indicated: *
[10]; conclusion from subculture after exposure
  bacteriostatic or bactericidal effect: a bactericidal effect appeared to be observed
